ChEMBL document CHEMBL4507316 (2021)

How the values were obtained:
[1] = target: Mitogen-activated protein kinase 13 (Homo sapiens) (UniProt O15264); assay: p38-delta ProQinase selectivity panel; details: Compound concentration 1.0 uM
[2] = test system: Tyrosine-protein kinase ABL1 (Homo sapiens), P00519 [Q252H]; assay: ABL1 Q252H ProQinase selectivity panel; details: Compound concentration 1.0 uM
[3] = target: cAMP-dependent protein kinase catalytic subunit PRKX (Homo sapiens) (UniProt P51817); assay: PRKX ProQinase selectivity panel; details: Compound concentration 1.0 uM
[4] = target: D(3) dopamine receptor (Homo sapiens) (UniProt P35462); details: Compound concentration 10.0 uM
[5] = test system: Tyrosine-protein kinase ABL1 (Homo sapiens), P00519 [G250E]; assay: ABL1 G250E ProQinase selectivity panel; details: Compound concentration 1.0 uM
[6] = target: Death-associated protein kinase 1 (Homo sapiens) (UniProt P53355); assay: DAPK1 ProQinase selectivity panel; details: Compound concentration 1.0 uM
[7] = target: GABA-A receptor; anion channel (Rattus norvegicus) (UniProt O09028+P15431+P18506+P18508+P19969+P20236+P23574+P23576+P28471+P28473+P30191+P62813+P63079+P63138+Q91ZM7+Q9ES14); details: Compound concentration 10.0 uM
[8] = target: MAP kinase-interacting serine/threonine-protein kinase 1 (Homo sapiens) (UniProt Q9BUB5); assay: MKNK1 ProQinase selectivity panel; details: Compound concentration 1.0 uM
[9] = target: Tyrosine-protein kinase Fyn (Homo sapiens) (UniProt P06241); assay: FYN ProQinase selectivity panel; details: Compound concentration 1.0 uM
[10] = target: Sodium-dependent dopamine transporter (Homo sapiens, UniProt Q01959); details: Compound concentration 10.0 uM
[11] = target: Serine/threonine-protein kinase PAK 1 (Homo sapiens) (UniProt Q13153); assay: PAK1 ProQinase selectivity panel; details: Compound concentration 1.0 uM
[12] = target: Fibroblast growth factor receptor 4 (Homo sapiens) (UniProt P22455); assay: FGF-R4 ProQinase selectivity panel; details: Compound concentration 1.0 uM
[13] = target: Serine/threonine-protein kinase Sgk3 (Homo sapiens) (UniProt Q96BR1); assay: SGK3 ProQinase selectivity panel; details: Compound concentration 1.0 uM
[14] = target: D(1A) dopamine receptor (Homo sapiens) (UniProt P21728); details: Compound concentration 10.0 uM
[15] = target: Serine/threonine-protein kinase PLK2 (Homo sapiens) (UniProt Q9NYY3); assay: SNK ProQinase selectivity panel; details: Compound concentration 1.0 uM
[16] = target: Muscarinic acetylcholine receptor M3 (Homo sapiens) (UniProt P20309); details: Compound concentration 10.0 uM
[17] = test system: Hepatocyte growth factor receptor (Homo sapiens), P08581 [Y1235D]; assay: MET Y1235D ProQinase selectivity panel; details: Compound concentration 1.0 uM
[18] = target: Tyrosine-protein kinase Tec (Homo sapiens) (UniProt P42680); assay: TEC ProQinase selectivity panel; details: Compound concentration 1.0 uM
[19] = target: Casein kinase II subunit alpha (Homo sapiens) (UniProt P68400); assay: CK2-alpha1 ProQinase selectivity panel; details: Compound concentration 1.0 uM
[20] = target: Serine/threonine-protein kinase TAO2 (Homo sapiens) (UniProt Q9UL54); assay: TAOK2 ProQinase selectivity panel; details: Compound concentration 1.0 uM
[21] = target: Receptor tyrosine-protein kinase erbB-2 (Homo sapiens) (UniProt P04626); assay: ERBB2 ProQinase selectivity panel; details: Compound concentration 1.0 uM
[22] = target: Dual specificity mitogen-activated protein kinase kinase 2 (Homo sapiens) (UniProt P36507); assay: MEK2 ProQinase selectivity panel; details: Compound concentration 1.0 uM
[23] = target: Tyrosine-protein kinase JAK2 (Homo sapiens) (UniProt O60674); assay: JAK2 ProQinase selectivity panel; details: Compound concentration 1.0 uM
[24] = target: Serine/threonine-protein kinase haspin (Homo sapiens) (UniProt Q8TF76); assay: GSG2 ProQinase selectivity panel; details: Compound concentration 1.0 uM
[25] = target: Interleukin-1 receptor-associated kinase 4 (Homo sapiens) (UniProt Q9NWZ3); assay: IRAK4 ProQinase selectivity panel; details: Compound concentration 1.0 uM
[26] = target: Activin receptor type-1 (Homo sapiens) (UniProt Q04771); assay: ACV-R1 ProQinase selectivity panel; details: Compound concentration 1.0 uM
[27] = test system: Receptor-type tyrosine-protein kinase FLT3 (Homo sapiens), P36888 [UNDEFINED MUTATION]; assay: FLT3 ITD ProQinase selectivity panel; details: Compound concentration 1.0 uM
[28] = target: Cyclin-dependent kinase 1/cyclin B (Homo sapiens) (UniProt P06493+P14635+Q8WWL7+O95067); assay: CDK1/CycB1 ProQinase selectivity panel; format: protein-complex assay; details: Compound concentration 1.0 uM
[29] = test system: RAF proto-oncogene serine/threonine-protein kinase (Homo sapiens), P04049 [Y340D,Y341D]; assay: RAF1 Y340D/Y341D ProQinase selectivity panel; details: Compound concentration 1.0 uM
[30] = target: Calcium/calmodulin-dependent protein kinase kinase 2 (Homo sapiens) (UniProt Q96RR4); assay: CAMKK2 ProQinase selectivity panel; details: Compound concentration 1.0 uM
[31] = target: Mitogen-activated protein kinase 11 (Homo sapiens, UniProt Q15759); assay: p38-beta ProQinase selectivity panel; details: Compound concentration 1.0 uM
[32] = target: Serine/threonine-protein kinase 26 (Homo sapiens) (UniProt Q9P289); assay: MST4 ProQinase selectivity panel; details: Compound concentration 1.0 uM
[33] = test system: Epidermal growth factor receptor (Homo sapiens), P00533 [UNDEFINED MUTATION]; assay: EGF-R d747-752/P753S ProQinase selectivity panel; details: Compound concentration 1.0 uM
[34] = target: Dual specificity tyrosine-phosphorylation-regulated kinase 4 (Homo sapiens) (UniProt Q9NR20); assay: DYRK4 ProQinase selectivity panel; details: Compound concentration 1.0 uM
[35] = target: Myotonin-protein kinase (Homo sapiens) (UniProt Q09013); assay: DMPK ProQinase selectivity panel; details: Compound concentration 1.0 uM
[36] = target: Ribosomal protein S6 kinase alpha-2 (Homo sapiens) (UniProt Q15349); assay: RPS6KA2 ProQinase selectivity panel; details: Compound concentration 1.0 uM
[37] = target: Ribosomal protein S6 kinase alpha-5 (Homo sapiens) (UniProt O75582); assay: RPS6KA5 ProQinase selectivity panel; details: Compound concentration 1.0 uM
[38] = target: Ephrin type-B receptor 1 (Homo sapiens) (UniProt P54762); assay: EPHB1 ProQinase selectivity panel; details: Compound concentration 1.0 uM
[39] = target: Serine/threonine-protein kinase mTOR (Homo sapiens) (UniProt P42345); assay: mTOR ProQinase selectivity panel; details: Compound concentration 1.0 uM
[40] = target: LIM domain kinase 1 (Homo sapiens) (UniProt P53667); assay: LIMK1 ProQinase selectivity panel; details: Compound concentration 1.0 uM
[41] = target: 5-hydroxytryptamine receptor 2A (Homo sapiens, UniProt P28223); details: Compound concentration 10.0 uM
[42] = target: Ribosomal protein S6 kinase beta-1 (Homo sapiens) (UniProt P23443); assay: S6K ProQinase selectivity panel; details: Compound concentration 1.0 uM
[43] = target: Mast/stem cell growth factor receptor Kit (Homo sapiens) (UniProt P10721); assay: KIT wt ProQinase selectivity panel; details: Compound concentration 1.0 uM
[44] = target: Mitogen-activated protein kinase 12 (Homo sapiens) (UniProt P53778); assay: p38-gamma ProQinase selectivity panel; details: Compound concentration 1.0 uM
[45] = target: Alpha-2A adrenergic receptor (Homo sapiens) (UniProt P08913); details: Compound concentration 10.0 uM
[46] = target: Vascular endothelial growth factor receptor 2 (Homo sapiens) (UniProt P35968); assay: VEGF-R2 ProQinase selectivity panel; details: Compound concentration 1.0 uM
[47] = target: Myosin light chain kinase (Homo sapiens) (UniProt Q32MK0); assay: MYLK3 ProQinase selectivity panel; details: Compound concentration 1.0 uM

Chain of Fibroblast growth factor receptor 4 (Homo sapiens) (P22455 22-802 limits assumed): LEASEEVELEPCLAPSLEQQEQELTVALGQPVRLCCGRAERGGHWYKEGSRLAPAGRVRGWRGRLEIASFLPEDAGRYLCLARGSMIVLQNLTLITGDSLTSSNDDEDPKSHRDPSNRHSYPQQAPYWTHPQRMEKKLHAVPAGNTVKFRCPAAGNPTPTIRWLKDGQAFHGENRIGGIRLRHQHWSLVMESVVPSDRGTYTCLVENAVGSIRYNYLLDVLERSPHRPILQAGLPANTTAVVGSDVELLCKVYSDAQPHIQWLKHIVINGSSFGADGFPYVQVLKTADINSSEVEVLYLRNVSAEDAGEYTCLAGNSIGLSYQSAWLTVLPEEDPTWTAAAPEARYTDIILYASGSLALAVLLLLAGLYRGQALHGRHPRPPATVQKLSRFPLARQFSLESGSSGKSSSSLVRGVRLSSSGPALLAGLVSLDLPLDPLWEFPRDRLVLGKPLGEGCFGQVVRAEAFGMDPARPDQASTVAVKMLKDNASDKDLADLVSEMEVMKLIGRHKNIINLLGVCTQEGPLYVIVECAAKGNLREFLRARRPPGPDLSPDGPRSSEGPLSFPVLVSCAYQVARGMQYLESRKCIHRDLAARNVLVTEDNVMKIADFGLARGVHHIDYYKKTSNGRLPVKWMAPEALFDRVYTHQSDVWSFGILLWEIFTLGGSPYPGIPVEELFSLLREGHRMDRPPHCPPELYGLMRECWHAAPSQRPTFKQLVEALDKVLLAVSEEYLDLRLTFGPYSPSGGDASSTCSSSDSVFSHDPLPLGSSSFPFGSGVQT
Chain of LIM domain kinase 1 (Homo sapiens) (P53667 whole entry, looked up, the tested form may be a part): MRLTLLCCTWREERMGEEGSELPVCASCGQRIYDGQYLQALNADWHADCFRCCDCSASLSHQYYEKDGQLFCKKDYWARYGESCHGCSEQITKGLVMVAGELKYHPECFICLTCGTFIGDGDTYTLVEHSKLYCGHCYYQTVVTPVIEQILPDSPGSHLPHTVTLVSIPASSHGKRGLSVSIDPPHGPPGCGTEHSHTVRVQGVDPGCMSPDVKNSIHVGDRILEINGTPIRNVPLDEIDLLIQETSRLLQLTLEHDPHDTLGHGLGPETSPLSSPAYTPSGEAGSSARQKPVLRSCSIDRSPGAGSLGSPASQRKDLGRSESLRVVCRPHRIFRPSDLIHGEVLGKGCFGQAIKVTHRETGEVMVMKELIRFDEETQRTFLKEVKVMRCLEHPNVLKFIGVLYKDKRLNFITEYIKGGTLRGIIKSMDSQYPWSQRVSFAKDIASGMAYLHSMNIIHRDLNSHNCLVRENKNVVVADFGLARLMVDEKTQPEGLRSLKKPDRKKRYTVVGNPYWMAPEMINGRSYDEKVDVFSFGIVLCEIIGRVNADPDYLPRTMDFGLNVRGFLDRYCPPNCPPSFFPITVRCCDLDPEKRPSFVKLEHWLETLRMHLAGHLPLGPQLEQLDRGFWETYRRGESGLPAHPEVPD
Chain of Interleukin-1 receptor-associated kinase 4 (Homo sapiens) (Q9NWZ3 whole entry): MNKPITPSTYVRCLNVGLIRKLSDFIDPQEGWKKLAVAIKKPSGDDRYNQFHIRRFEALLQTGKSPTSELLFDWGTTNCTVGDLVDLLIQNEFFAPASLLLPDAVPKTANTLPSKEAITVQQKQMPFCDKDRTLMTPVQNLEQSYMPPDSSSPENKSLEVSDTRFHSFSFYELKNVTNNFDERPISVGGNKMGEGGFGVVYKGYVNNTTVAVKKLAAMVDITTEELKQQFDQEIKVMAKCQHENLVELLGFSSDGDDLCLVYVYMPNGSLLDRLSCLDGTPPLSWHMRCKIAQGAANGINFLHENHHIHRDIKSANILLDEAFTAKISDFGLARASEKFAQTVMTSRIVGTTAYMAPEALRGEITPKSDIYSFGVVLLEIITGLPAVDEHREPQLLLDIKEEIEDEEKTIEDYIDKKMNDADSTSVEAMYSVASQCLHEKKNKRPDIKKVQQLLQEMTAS
Chain of Mitogen-activated protein kinase 11 (Q15759 whole entry): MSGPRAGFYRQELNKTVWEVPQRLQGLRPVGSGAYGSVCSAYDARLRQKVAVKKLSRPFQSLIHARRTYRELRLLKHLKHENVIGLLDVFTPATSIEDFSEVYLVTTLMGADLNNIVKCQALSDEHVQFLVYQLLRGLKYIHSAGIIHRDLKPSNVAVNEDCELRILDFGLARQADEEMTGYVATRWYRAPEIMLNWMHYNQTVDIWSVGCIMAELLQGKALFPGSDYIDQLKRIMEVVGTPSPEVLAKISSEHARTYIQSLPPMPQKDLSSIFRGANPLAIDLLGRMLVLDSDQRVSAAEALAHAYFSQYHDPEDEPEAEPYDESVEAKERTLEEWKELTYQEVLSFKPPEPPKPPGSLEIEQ
Chain of Calcium/calmodulin-dependent protein kinase kinase 2 (Homo sapiens) (Q96RR4 2-588 limits assumed): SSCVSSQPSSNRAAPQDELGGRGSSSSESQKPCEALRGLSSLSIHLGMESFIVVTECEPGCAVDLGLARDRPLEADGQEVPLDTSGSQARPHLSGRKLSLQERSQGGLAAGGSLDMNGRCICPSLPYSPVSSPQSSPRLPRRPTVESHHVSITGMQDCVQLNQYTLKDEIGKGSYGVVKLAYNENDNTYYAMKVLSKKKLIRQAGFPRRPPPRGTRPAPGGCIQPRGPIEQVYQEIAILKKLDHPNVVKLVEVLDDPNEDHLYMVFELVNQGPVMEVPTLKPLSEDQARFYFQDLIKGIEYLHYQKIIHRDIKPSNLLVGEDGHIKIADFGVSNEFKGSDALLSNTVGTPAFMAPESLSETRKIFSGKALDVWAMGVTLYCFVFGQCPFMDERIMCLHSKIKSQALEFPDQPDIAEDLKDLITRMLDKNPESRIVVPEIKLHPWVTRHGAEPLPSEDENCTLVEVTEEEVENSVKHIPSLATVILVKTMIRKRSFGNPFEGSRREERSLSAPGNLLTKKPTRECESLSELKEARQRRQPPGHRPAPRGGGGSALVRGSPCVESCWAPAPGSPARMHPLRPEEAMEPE
Chain of Ribosomal protein S6 kinase alpha-5 (Homo sapiens) (O75582 whole entry, looked up): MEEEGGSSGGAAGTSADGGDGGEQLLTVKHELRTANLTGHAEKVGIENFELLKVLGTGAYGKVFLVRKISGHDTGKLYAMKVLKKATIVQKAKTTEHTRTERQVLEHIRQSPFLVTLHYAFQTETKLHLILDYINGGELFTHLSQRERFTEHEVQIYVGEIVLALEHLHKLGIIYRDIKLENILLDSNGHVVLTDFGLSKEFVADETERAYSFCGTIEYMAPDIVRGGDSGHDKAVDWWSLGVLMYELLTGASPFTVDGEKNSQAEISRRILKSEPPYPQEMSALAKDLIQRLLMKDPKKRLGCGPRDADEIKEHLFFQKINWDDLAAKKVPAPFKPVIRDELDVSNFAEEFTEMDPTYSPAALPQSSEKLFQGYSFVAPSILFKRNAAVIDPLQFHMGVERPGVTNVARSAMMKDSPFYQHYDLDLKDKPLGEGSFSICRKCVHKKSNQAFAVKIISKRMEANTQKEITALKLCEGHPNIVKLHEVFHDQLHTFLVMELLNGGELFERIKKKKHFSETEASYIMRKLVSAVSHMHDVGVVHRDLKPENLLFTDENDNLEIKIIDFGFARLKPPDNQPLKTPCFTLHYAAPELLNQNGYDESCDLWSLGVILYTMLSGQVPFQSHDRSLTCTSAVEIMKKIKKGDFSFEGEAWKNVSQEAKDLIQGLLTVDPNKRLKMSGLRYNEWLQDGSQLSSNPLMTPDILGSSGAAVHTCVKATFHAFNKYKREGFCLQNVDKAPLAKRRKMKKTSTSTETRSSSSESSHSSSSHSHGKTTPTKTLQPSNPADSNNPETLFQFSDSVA
Chain of Vascular endothelial growth factor receptor 2 (Homo sapiens) (P35968 whole entry): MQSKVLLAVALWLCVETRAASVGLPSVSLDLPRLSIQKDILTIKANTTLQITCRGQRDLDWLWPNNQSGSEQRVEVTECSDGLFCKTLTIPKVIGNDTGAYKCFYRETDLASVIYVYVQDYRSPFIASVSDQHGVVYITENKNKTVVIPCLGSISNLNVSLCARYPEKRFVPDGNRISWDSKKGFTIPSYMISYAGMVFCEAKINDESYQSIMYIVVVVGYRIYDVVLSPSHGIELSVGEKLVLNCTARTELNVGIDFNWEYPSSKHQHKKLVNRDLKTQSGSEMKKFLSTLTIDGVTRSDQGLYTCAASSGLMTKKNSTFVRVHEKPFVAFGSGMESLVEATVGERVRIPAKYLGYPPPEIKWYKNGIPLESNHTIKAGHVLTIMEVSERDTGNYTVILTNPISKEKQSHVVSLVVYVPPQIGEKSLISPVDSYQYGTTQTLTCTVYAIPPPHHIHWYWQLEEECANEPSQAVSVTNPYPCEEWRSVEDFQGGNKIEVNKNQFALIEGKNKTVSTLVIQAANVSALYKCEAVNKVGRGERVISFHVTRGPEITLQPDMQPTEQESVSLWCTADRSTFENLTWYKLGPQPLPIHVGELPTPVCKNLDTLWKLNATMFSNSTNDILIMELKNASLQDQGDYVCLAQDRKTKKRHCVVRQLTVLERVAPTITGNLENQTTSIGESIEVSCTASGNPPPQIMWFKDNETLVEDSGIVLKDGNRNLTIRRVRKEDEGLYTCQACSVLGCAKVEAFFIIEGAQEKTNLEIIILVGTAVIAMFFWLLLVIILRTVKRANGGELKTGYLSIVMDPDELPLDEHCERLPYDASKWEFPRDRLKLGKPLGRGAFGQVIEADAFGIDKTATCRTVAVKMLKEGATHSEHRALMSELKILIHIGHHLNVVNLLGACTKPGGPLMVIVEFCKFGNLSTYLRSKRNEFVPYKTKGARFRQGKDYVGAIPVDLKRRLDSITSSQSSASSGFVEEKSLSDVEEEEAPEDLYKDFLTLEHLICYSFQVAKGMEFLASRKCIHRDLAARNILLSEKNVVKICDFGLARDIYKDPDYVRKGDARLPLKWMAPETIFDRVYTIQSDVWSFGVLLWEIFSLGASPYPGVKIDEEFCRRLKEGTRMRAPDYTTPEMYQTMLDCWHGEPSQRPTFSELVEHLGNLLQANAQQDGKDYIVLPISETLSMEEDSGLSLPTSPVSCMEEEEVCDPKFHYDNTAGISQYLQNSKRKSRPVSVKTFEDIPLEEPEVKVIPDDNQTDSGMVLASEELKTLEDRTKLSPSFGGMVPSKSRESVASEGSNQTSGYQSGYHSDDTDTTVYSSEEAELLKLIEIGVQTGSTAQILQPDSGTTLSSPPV

% Residual activity with Skepinone-L [1]: 80%
% Residual activity with Skepinone-L [2]: 95%
% Residual activity with Skepinone-L [3]: 79%
inhibition [4]: -7.71%
% Residual activity with Skepinone-L [5]: 97%
inhibition [7]: 8.2%
% Residual activity with Skepinone-L [8]: 69%
% Residual activity with Skepinone-L [9]: 124%
inhibition [10]: 81.4%
% Residual activity with Skepinone-L [11]: 100%
% Residual activity with Skepinone-L [12]: 103%
% Residual activity with Skepinone-L [13]: 102%
inhibition [14]: 5.83%
% Residual activity with Skepinone-L [15]: 103%
inhibition [16]: 11.2%
% Residual activity with Skepinone-L [17]: 114%
% Residual activity with Skepinone-L [18]: 115%
% Residual activity with Skepinone-L [19]: 95%
% Residual activity with Skepinone-L [20]: 102%
% Residual activity with Skepinone-L [21]: 91%
% Residual activity with Skepinone-L [22]: 99%
% Residual activity with Skepinone-L [23]: 90%
% Residual activity with Skepinone-L [24]: 82%
% Residual activity with Skepinone-L [25]: 104%
% Residual activity with Skepinone-L [26]: 94%
% Residual activity with Skepinone-L [27]: 101%
% Residual activity with Skepinone-L [28]: 83%
% Residual activity with Skepinone-L [29]: 91%
% Residual activity with Skepinone-L [30]: 97%
% Residual activity with Skepinone-L [31]: 3%
% Residual activity with Skepinone-L [32]: 106%
% Residual activity with Skepinone-L [33]: 93%
% Residual activity with Skepinone-L [34]: 93%
% Residual activity with Skepinone-L [35]: 99%
% Residual activity with Skepinone-L [36]: 90%
% Residual activity with Skepinone-L [37]: 77%
% Residual activity with Skepinone-L [38]: 116%
% Residual activity with Skepinone-L [39]: 97%
% Residual activity with Skepinone-L [40]: 109%
inhibition [41]: 73.1%
% Residual activity with Skepinone-L [42]: 85%
% Residual activity with Skepinone-L [43]: 111%
% Residual activity with Skepinone-L [44]: 102%
inhibition [45]: 39.6%
% Residual activity with Skepinone-L [46]: 91%
% Residual activity with Skepinone-L [47]: 85%
Structure (SMILES): O=C1c2ccc(Nc3ccc(F)cc3F)cc2CCc2ccc(OC[C@H](O)CO)cc21 [Skepinone-L]
% Residual activity with Skepinone-L [6]: 86%
